From patent US9370542B2, “Medical composition containing Stauntonia hexaphylla extract” (JEONNAM BIOINDUSTRY FOUNDATION, priority 2011, dated 2016) come the findings set out here.

This test relates to fever induced by lipopolysaccharide (LPS). Put plainly: LPS-induced fever, antipyretic effect of leaf extract (Example 9-1). It is filed as in vivo, Sprague-Dawley male white rats. How it is done: Test animals were used to determine antipyretic effects of the Stauntonia Hexaphylla leaf extract and fractions thereof prepared in Example 1.
The test animals herein used were 5-week old Sprague-Dawley male white mice obtained from Samtako Inc. (Korea). The test animals were bred at a temperature of 20° C. to 24° C. and at a humidity of 60% to 70% under the day-night illumination condition at 12-hour intervals and were freely fed with water and feed. The feed used herein was a solid feed (Samyang Feed Co., Korea). The test animals were bred under the same conditions for 7 days, adapted to laboratory environments and then used for testing.
Specifically, 5 mice were randomly selected from the test animals and set as a first group, and 500 μg/kg of lipopolysaccharide (LPS, Sigma, USA) was intraperitoneally injected into the mice to induce fever. Body temperature was measured as follows. Rectal body temperature was measured using a rectal thermometer (Portable Thermocouple Thermometer (Physitemp Instruments, USA) and a stainless steel rectal probe for rats (Physitemp Instruments, USA) and body temperatures of SD mice were measured three times before the test to minimize an temperature increase caused by temperature measurement stress.
First, in order to determine antipyretic effects of the Stauntonia Hexaphylla leaf hot water extract, a negative control group (LPS) not treated with any sample, a first positive control group (APAP) orally administered with 50 mg/kg of acetaminophen (APAP, Sigma, USA), a conventional drug, found to have antipyretic effect, and a second positive control group (Dexamethasone) orally administered with 1 mg/kg of dexamethasone (Sigma, USA) were used.
First, 500 μg/kg of a fever-inducing substance (LPS) was intraperitoneally injected (i.p.) into the test animals that finished preparations for minimization of temperature increase caused by temperature measurement stress, and a non-treated group (LPS), a group (SHL-200) orally administered with 200 mg/kg of the Stauntonia Hexaphylla leaf hot water extraction, a group (APAP) orally administered with 50 mg/kg of acetaminophen, and a group (Dexamethasone) orally administered with 1 mg/kg of dexamethasone were prepared according to type of test groups. In addition, 200 mg/kg of the Stauntonia Hexaphylla leaf hot water extract was orally administered one hour after administration of the fever-inducing substance (SHL-200 (1 h)), and rectal temperatures were measured at one hour, 4 hours and 8 hours over 8 hours in total after the administration of the fever-inducing substance. The measurement results are shown in FIG. 12 and the following Table 3. Values of the following Table 3 mean body temperatures (° C.) measured at different times.

With `CC(=O)Nc1ccc(O)cc1` [APAP, acetaminophen], the “body temperature (rectal)” value is, setting by setting: (0 h, 50 mg/kg oral with LPS 500 μg/kg i.p.) 37.2 °C; (1 h, 50 mg/kg oral with LPS 500 μg/kg i.p.) 36.58 ± 0.67 °C; (4 h, 50 mg/kg oral with LPS 500 μg/kg i.p.) 37.53 ± 0.59 °C; (8 h, 50 mg/kg oral with LPS 500 μg/kg i.p.) 37.78 ± 0.13 °C.

With `C[C@@H]1C[C@H]2[C@@H]3CCC4=CC(=O)C=C[C@]4(C)[C@@]3(F)[C@@H](O)C[C@]2(C)[C@@]1(O)C(=O)CO` [Dexamethasone, dexamethasone], the “body temperature (rectal)” value was 37.2 °C (0 h, 1 mg/kg oral with LPS 500 μg/kg i.p.); 37.3 ± 0.52 °C (1 h, 1 mg/kg oral with LPS 500 μg/kg i.p.); 37.6 ± 0.12 °C (4 h, 1 mg/kg oral with LPS 500 μg/kg i.p.); 37.73 ± 0.13 °C (8 h, 1 mg/kg oral with LPS 500 μg/kg i.p.).
